Laboratory results published in EP0182608B1, “Polycyclic compounds, their preparation and formulations containing them” (priority 1984, dated 1986).

System: P388/0 tumor cells
Assay: Lymphocytic Leukemia P388/0 Test
Format: in vivo, CD2-F₁ mice
Details: for LD₂₀: CD2-F₁ mice, intraperitoneally on days 1, 5 and 9; for 30 DAY Survivors: at the optimal dose, survivors out of 6 animals per dose level group; for T/C x 100% (Excluding 30 Day Survivors): ratio of median survival time treated/control at the optimal dose, i.p. days 1, 5, 9, criterion for activity T/C x 100 ≧120%
Source text: Methods for evaluating the antitumor activity of these compounds are essentially those used in the Tumor Panel by the Development Therapeutics Program, Division of Cancer Treatment, National Cancer Institute, A. Goldin, et al., Methods in Cancer Research, Vol. XVI, p. 165, Academic Press (1979). Some modifications, in dose level and schedule have been made to increase the testing efficiency.
CD2-F₁ mice, of the same sex weighing within 20±3g, are used for this test. Control and test animals are injected intraperitoneally with a suspension of 10⁶ viable P388/0 tumor cells on day 0. In each test several dose levels which bracket the LD₂₀ for the compound are evaluated; each dose level group contains 6 animals. The test compounds are prepared either in physiologic saline containing 0.05% Tween 80 or distilled water containing 5% dextrose and are administered intraperitoneally on days, 1, 5, and 9 relative to tumor implant. Doses are on a mg/kg basis according to individual animals' body weights. the day of death for each animal is recorded, the median identified for each group and the ratios of median survival time for treated (T)/control (C) groups are calculated. The criterion for activity is T/C x 100 ≧120%.

Row | Compound | LD₂₀ [mg/kg] | 30 DAY Survivors | T/C x 100% (Excluding 30 Day Survivors)
1 | CC(CO)(CO)NCc1cc2c3ccccc3sc2c2ccccc12 [Example 1, 2-((Benzo[b]naphtho [2,1-d]thiophen-5-ylmethyl)amino)-2-methyl-1,3-propanediol methanesulfonate] | 35 | 1/6 | +210%
2 | CC(CO)(CO)NCc1cccc2cc3c(cc12)oc1ccccc13 [Example 6B, 2-[(Benzo[b]naphthol[2,3-d]furan-7-ylmethyl)amino]-2-methyl-1,3-propanediol methanesulphonate 1/4 hydrate] | 35 | 0/6 | +210%
3 | 2-Methyl-2-[[(7-methyl-7-H-benzo[c]carbazol-10-yl) methyl]amino-1,3-propanediol hydrochloride 3/10 hydrate [Example 4C] | 55 | 6/6 | no deaths
4 | CC(CO)(CO)NCc1cc2c3ccccc3oc2c2ccccc12 [Example 5B] | 100 | 4/6 | +255%
5 | CC(CO)(CO)NCc1c2ccccc2cc2c1oc1ccccc12 [Example 2B, 2-((Benzo[b]naphtho[2,3-d]furan-6-ylmethyl)amino]2-methyl-1,3-propanediol methanesulfonate] | 125 | 1/6 | +204%
6 | CC(CO)(CO)NCc1cc2oc3ccccc3c2c2ccccc12 [Example 3B, 2-((Benzo[b]naphtho[1,2-d]furan-5-ylmethyl)amino)-2-methyl-1,3-propanediol methanesulfonate] | 10 | 2/6 | +230%
